For assay [1], the target named is T1, INDY (Homo sapiens, UniProt Q86YT5). In words: 14C-citrate uptake in HEK293 cells overexpressing recombinant human INDY (NaCT). The format is cell-based. On the set-up: expressed in transfected cells; host or cells: HEK293. Summed up:
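HEK293 cells overexpressing human NaCT, 50,000/well, preincubated 5-30 min at 37 °C with compound in pH 6.5 Na+ buffer. 14C-citrate ([…]) uptake then ran 20-90 min at 37 °C, followed by ice-cold washes, NaOH lysis and scintillation counting. 10 mM citrate served as positive control.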

In assay [2] the target is T1, INDY. In words: 14C-citrate uptake in HepG2 cells endogenously expressing INDY (NaCT). The format is cell-based. To be noted: endogenous INDY. Summed up:
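HepG2 cells, which express INDY endogenously, were preincubated with compound for 5 min at 37 °C in pH 6.5 Na+ citrate uptake buffer. 14C-citrate ([…]) was then added for 90 min at 37 °C. After washing and NaOH lysis, uptake was measured by scintillation counting, with 5 mM citrate as positive control.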

Some results are limits rather than exact numbers.

T1 sequence (Q86YT5 whole entry): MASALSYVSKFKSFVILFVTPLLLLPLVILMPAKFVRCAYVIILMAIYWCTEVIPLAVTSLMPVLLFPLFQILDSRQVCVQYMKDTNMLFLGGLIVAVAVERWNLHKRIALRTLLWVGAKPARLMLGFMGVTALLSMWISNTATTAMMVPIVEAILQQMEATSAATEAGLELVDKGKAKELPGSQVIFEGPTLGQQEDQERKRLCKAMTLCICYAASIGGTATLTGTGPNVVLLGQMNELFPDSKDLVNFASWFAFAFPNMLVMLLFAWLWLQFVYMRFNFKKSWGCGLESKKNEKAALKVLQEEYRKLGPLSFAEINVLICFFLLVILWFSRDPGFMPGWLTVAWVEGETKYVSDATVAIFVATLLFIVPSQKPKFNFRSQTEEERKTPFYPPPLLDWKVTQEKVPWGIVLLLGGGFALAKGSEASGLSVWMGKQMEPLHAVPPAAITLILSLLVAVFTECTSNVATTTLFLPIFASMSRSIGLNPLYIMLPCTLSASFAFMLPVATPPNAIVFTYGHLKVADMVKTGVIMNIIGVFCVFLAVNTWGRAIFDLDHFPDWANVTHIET

Take `O=C(NCc1ccccc1F)C1CCN(S(=O)(=O)/C=C/c2ccccc2)CC1` [Example 5]: the IC50 came out at 2900 nM on INDY [1] and 2000 nM on INDY [2].
On the same counts, the results for `CC(C)(C)c1ccc(S(=O)(=O)N2CCC(C(=O)NCc3ccccc3F)CC2)cc1` [Example 12, 1-(4-tert-butylbenzenesulfonyl)-N-[(2-fluorophenyl)methyl]piperidine-4-carboxamide] are 200 nM and 1000 nM.
The corresponding values for `O=C(NCc1ccccc1F)C1CCN(S(=O)(=O)c2ccc(C(F)(F)F)cc2)CC1` [Example 25, N-[(2-fluorophenyl)methyl]-1-[4-(trifluoromethyl)benzenesulfonyl]piperidine-4-carboxamide] are > 20000 nM and 300 nM.
Consider `O=C(NCc1ccccc1F)C1CCN(S(=O)(=O)c2cc(Cl)cc(Cl)c2)CC1` [Example 44, 1-(3,5-dichlorobenzenesulfonyl)-N-[(2-fluorophenyl)methyl]piperidine-4-carboxamide], for which the IC50 at INDY [1] and against INDY [2] was 100 nM each time.
Turning to `COc1ccccc1CNC(=O)C1CN(S(=O)(=O)c2ccc(C(C)(C)C)cc2)C1` [Example 50, 1-(4-tert-butylbenzenesulfonyl)-N-[(2-methoxyphenyl)methyl]azetidine-3-carboxamide], the IC50 at INDY [1] is 4400 nM; at INDY [2], 7000 nM.
On to `O=C(NCc1ccccn1)C1CCN(S(=O)(=O)c2cc(Cl)cc(Cl)c2)CC1` [Example 55, 1-(3,5-dichlorobenzenesulfonyl)-N-[(pyridin-2-yl)methyl]piperidine-4-carboxamide], for which the IC50 on INDY [1] turned out to be 800 nM; at INDY [2] it was 400 nM.
Turning to `O=C(NCc1ccccn1)C1CCN(S(=O)(=O)c2ccc(C(F)(F)F)cc2)CC1` [Example 57, N-[(pyridin-2-yl)methyl]-1-[4-(trifluoromethyl)benzenesulfonyl]piperidine-4-carboxamide], the half-maximal inhibitory concentration (IC50) on INDY [1] is 4100 nM; at INDY [2], 2500 nM.
As for `O=C(NCc1ccccn1)C1CCN(S(=O)(=O)c2ccc(S(F)(F)(F)(F)F)cc2)CC1` [Example 86, 1-[4-(pentafluoro-lambda6-sulfanyl)benzenesulfonyl]-N-[(pyridin-2-yl)methyl]pipendine-4-carboxamide], the concentration for half-maximal inhibition (IC50) came to 1100 nM at INDY [1] and 400 nM at INDY [2].
With `O=C(NCc1ccccc1CO)C1CCN(S(=O)(=O)c2cc(Cl)cc(Cl)c2)CC1` [Example 87, 1-(3,5-dichlorobenzenesulfonyl)-N-{[2-(hydroxymethyl)phenyl]methyl}piperidine-4-carboxamide], the IC50 at INDY [1] was found to be 600 nM; on INDY [2], 200 nM.
Turning to `O=C(NCc1ccccn1)C1CCN(S(=O)(=O)c2cc(Cl)cc(C3CC3)c2)CC1` [Example 101, 1-(3-chloro-5-cyclopropylbenzenesulfonyl)-N-[(pyridin-2-yl)methyl]piperidine-4-carboxamide], the IC50 on INDY [1] came to 300 nM; at INDY [2], 100 nM.

As usually defined, the IC50 is the concentration at which inhibition is half-maximal.

Source of the values: patent US20200087258A1, “INHIBITOR OF CITRATE TRANSPORTER AND THEIR USE IN THERAPY” (Eternygen GmbH, priority 2017, published 2020).
